We go through 18 compounds from patent US20230373985A1 (Origenis Gmbh, priority 2020, published 2023).

The target in test [1] is T1, wt human TYK2, catalytic site (Homo sapiens, UniProt P29597).
T1 construct: wt human TYK2, catalytic site; purchased SignalChem
T1 sequence (P29597 897-1176 limits assumed): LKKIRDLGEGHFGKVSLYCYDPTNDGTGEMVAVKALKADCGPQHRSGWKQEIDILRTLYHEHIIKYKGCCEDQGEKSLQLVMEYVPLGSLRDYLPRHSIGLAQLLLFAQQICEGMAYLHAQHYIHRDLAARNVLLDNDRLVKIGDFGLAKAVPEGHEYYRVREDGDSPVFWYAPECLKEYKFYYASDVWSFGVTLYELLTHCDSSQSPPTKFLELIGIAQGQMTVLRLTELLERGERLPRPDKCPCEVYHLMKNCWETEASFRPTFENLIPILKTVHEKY
Kind of test: HTRF KinEASE assay, TYK2. In kind it is biochemical. Particulars: 1 μM ATP; read-out: IC50, Activity Toward TYK2. Summed up:
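Kinase reaction run at room temperature for at least 30 min: 2 nM TYK2 with 1 μM ATP, or 1 nM JAK2 with 100 μM ATP, each with 1 μM biotin-TK substrate. Phosphorylation detected by HTRF (60 min antibody/XL665) and evaluated from emission ratios.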

Test [2] deals with T2, wt human LRRK2, catalytic site (Homo sapiens, UniProt Q5S007).
T2 construct: 5 nM wt human LRRK2, catalytic site; purchased ThermoFisher
Kind of test: TR-FRET LanthaScreen Eu Kinase Binding Assay, LRRK2 wt. The note with it: one range stated for wt and G2019, read-out: IC50, Activity Toward LRRK2(Wt). The method, then: (§1) The basic protocol for TR-FRET LanthaScreen Eu Kinase Binding Assay inhibitor studies were performed as follows. LanthaScreen Kinase Binding Assays (ThermoFisher/USA) to evaluate inhibitors were performed by addition of 5 μL of test compound in corresponding DMSO dilutions/5 μl of kinase/antibody mixture, 5 μL of tracer into 384 well small volume plates. After incubation for 1 hour at room temperature, plates were read. Data analysis of emission ratios was according LanthaScreen Eu Kinase Binding Assay protocol.
(§2) Kinase and assay components were adjusted to final concentrations according to kit protocol. For LRRK2: 5 nM wt human LRRK2, catalytic site, or G2019S human LRRK2, catalytic site (ThermoFisher/USA), 2 nM Eu-Anti-GST Antibody, 10 nM Kinase Tracer 236 in 1× Kinase Buffer A. For NUAK1: 8 nM wt human NUAK1, full length (ThermoFisher/USA), 2 nM Eu-Anti-His Antibody, 5 nM Kinase Tracer 236 in 1× Kinase Buffer A.

Test [3] deals with T3, G2019S human LRRK2, catalytic site (Homo sapiens, UniProt Q5S007, G2019S).
T3 construct: G2019S human LRRK2, catalytic site; purchased ThermoFisher
Kind of test: TR-FRET LanthaScreen Eu Kinase Binding Assay, LRRK2 G2019S. The note with it: LRRK2(G2019); one range stated for wt and G2019; read-out: IC50, Activity Toward LRRK2(G2019). The method, then:
as §1, §2

In test [4] the target is T4, wt human JAK1, catalytic site (Homo sapiens, UniProt P23458).
T4 construct: wt human JAK1, catalytic site; purchased ThermoFisher
Put plainly: HTRF KinEASE assay, JAK1. Particulars: 2.5 μM ATP; read-out: IC50, Activity Toward JAK1. Format: biochemical. The gist of the method: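 Compounds in DMSO dilution were mixed with kinase, biotin-TK substrate and ATP and reacted for ≥30 min at room temperature. Detection reagents (antibody, streptavidin-XL665) were read 60 min later as HTRF, with emission ratios analysed per KinEASE protocol.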

T2 sequence (Q5S007 970-2527 limits assumed): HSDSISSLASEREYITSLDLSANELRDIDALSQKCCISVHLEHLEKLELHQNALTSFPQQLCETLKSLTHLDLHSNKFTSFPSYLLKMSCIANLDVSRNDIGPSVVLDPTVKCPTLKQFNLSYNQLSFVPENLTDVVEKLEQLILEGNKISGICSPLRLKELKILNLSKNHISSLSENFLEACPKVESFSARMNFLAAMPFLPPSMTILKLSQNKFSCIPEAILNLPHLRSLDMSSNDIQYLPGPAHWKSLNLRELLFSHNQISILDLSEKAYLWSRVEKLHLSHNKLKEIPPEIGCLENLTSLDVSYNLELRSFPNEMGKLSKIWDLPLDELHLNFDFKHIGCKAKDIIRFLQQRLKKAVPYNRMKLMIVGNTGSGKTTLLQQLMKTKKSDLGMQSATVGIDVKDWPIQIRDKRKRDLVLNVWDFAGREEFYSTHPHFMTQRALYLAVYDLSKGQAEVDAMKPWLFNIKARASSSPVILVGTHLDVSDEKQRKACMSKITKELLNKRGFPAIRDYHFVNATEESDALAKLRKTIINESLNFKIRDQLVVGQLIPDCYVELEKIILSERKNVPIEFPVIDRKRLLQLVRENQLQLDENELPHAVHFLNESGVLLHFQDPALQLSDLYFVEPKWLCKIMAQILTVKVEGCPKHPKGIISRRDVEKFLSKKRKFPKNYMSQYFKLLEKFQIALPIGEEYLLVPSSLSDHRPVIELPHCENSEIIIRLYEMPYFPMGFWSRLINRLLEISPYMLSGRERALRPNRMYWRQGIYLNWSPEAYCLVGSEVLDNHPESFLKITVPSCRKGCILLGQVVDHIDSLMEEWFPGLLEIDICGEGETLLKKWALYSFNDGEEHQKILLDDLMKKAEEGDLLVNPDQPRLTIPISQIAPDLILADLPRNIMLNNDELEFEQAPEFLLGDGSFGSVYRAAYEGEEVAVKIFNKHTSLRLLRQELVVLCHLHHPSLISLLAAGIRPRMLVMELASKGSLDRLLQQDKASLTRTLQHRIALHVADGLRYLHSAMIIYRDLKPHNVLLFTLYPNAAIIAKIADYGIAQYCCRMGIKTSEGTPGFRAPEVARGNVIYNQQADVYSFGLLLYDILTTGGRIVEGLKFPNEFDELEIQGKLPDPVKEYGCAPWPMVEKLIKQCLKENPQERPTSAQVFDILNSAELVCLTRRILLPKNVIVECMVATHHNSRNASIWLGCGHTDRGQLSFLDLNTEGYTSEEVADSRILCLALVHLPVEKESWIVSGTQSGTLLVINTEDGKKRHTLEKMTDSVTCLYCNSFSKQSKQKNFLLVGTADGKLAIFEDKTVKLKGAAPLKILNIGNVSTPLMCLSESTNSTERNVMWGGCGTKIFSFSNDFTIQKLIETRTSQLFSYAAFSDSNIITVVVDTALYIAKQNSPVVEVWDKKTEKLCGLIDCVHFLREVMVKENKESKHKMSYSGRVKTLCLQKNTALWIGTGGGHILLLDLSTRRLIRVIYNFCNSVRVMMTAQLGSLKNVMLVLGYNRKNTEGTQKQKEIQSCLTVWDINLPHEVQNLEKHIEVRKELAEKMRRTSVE
T3 sequence (Q5S007 970-2527 G2019S limits assumed): as the sequence (Q5S007 970-2527 limits assumed) above, with G1050S counted along it
T4 sequence (P23458 875-1153 limits assumed): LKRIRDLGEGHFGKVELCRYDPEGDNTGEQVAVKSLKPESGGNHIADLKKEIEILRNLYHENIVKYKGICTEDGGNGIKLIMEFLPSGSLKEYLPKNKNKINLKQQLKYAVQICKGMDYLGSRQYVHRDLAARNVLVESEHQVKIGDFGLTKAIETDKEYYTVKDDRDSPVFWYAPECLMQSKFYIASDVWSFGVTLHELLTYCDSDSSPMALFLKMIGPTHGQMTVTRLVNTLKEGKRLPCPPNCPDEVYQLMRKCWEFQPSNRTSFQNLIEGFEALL

Regarding `NC(=O)c1nn(-c2c(Cl)cccc2Cl)cc1Nc1ccc(-n2cc3c(n2)CCOC3)cc1` [compound 71, 1-(2,6-dichlorophenyl)-4-((4-(6,7-dihydropyrano[4,3-c]pyrazol-2(4H)-yl)phenyl)amino)-1H-pyrazole-3-carboxamide], the IC50 in test [1], in test [2], in test [3] and in test [4] was 100 to 1000 nM each time.

For `N#CC1CN(C(=O)c2ccc(Nc3cn(-c4c(Cl)cccc4Cl)nc3C(N)=O)cc2)C1` [compound 276, 4-((4-(3-cyanoazetidine-1-carbonyl)phenyl)amino)-1-(2,6-dichlorophenyl)-1H-pyrazole-3-carboxamide], the 50% inhibitory concentration (IC50) in test [1] was less than 10 nM; in test [2], 100 to 1000 nM; in test [3] it was 100 to 1000 nM; in test [4], 10 to 100 nM.

Take `NC(=O)c1nn(-c2c(Cl)cccc2Cl)cc1Nc1ccc(C(=O)N2CC(O)C2)cc1` [compound 426, 1-(2,6-dichlorophenyl)-4-((4-(3-hydroxyazetidine-1-carbonyl)phenyl)amino)-1H-pyrazole-3-carboxamide]: the half-maximal inhibitory concentration (IC50) was less than 10 nM in test [1], 100 to 1000 nM in test [2], 100 to 1000 nM in test [3] and 10 to 100 nM in test [4].

`Cc1cnccc1-c1ccc(Nc2cn(-c3c(Cl)cccc3Cl)nc2C(N)=O)cc1` [compound 260, 1-(2,6-dichlorophenyl)-4-((4-(3-methylpyridin-4-yl)phenyl)amino)-1H-pyrazole-3-carboxamide]: the half-inhibitory concentration (IC50) in test [1] was 100 to 1000 nM; in test [2], 100 to 1000 nM; in test [3] it was 100 to 1000 nM; in test [4], 10 to 100 nM.

Take `CC(C)(C)C(=O)c1ccc(Nc2cn(-c3c(F)cccc3Cl)nc2C(N)=O)cc1` [compound 42, 1-(2-chloro-6-fluorophenyl)-4-((4-pivaloylphenyl)amino)-1H-pyrazole-3-carboxamide]: the IC50 was less than 10 nM in test [1], 100 to 1000 nM in test [2], 100 to 1000 nM in test [3] and less than 10 nM in test [4].

Consider `CCn1cc(C#N)nc1-c1ccc(Nc2cn(-c3c(Cl)cccc3Cl)nc2C(N)=O)cc1` [compound 310, 4-((4-(4-cyano-1-ethyl-1H-imidazol-2-yl)phenyl)amino)-1-(2,6-dichlorophenyl)-1H-pyrazole-3-carboxamide], for which the IC50 was 10 to 100 nM in test [1], 100 to 1000 nM in test [2], 100 to 1000 nM in test [3] and 10 to 100 nM in test [4].

Turning to `NC(=O)c1nn(-c2c(Cl)cccc2Cl)cc1Nc1ccc(C(=O)NCCF)cc1` [compound 421, 1-(2,6-dichlorophenyl)-4-((4-((2-fluoroethyl)carbamoyl)phenyl)amino)-1H-pyrazole-3-carboxamide], the IC50 in test [1] is 10 to 100 nM; in test [2], 100 to 1000 nM; in test [3] it was 100 to 1000 nM; in test [4], 10 to 100 nM.

As to `NC(=O)c1nn(-c2c(F)cccc2F)cc1Nc1nc2ccccc2[nH]1` [compound 11, 4-((1H-benzo[d]imidazol-2-yl)amino)-1-(2,6-difluorophenyl)-1H-pyrazole-3-carboxamide], the IC50 in test [1], in test [2], in test [3] and in test [4] was 100 to 1000 nM each time.

With `CCNC(=O)c1ccc(Nc2cn(-c3c(F)cccc3Cl)nc2C(N)=O)cc1` [compound 40, 1-(2-chloro-6-fluorophenyl)-4-((4-(ethylcarbamoyl)phenyl)amino)-1H-pyrazole-3-carboxamide], the IC50 in test [1] was 10 to 100 nM; in test [2] it was 100 to 1000 nM; in test [3], 100 to 1000 nM; in test [4] it was 10 to 100 nM.

Regarding `N#Cc1ccnnc1-c1ccc(Nc2cn(-c3c(Cl)cccc3Cl)nc2C(N)=O)cc1` [compound 60, 4-((4-(4-cyanopyridazin-3-yl)phenyl)amino)-1-(2,6-dichlorophenyl)-1H-pyrazole-3-carboxamide], the IC50 in test [1] fell in the range of 10 to 100 nM; in test [2] it was 100 to 1000 nM; in test [3], 100 to 1000 nM; in test [4], 10 to 100 nM.

Turning to `NC(=O)c1nn(-c2c(Cl)cccc2Cl)cc1Nc1ccc(C(=O)N2CCN(C3CC3)CC2)cc1` [compound 84, 4-((4-(4-cyclopropylpiperazine-1-carbonyl)phenyl)amino)-1-(2,6-dichlorophenyl)-1H-pyrazole-3-carboxamide], the IC50 in test [1] is less than 10 nM; in test [2] it was 100 to 1000 nM; in test [3] it was 100 to 1000 nM; in test [4], 10 to 100 nM.

With `Cc1c[n+]([O-])ccc1-c1ccc(Nc2cn(-c3c(Cl)cccc3Cl)nc2C(N)=O)cc1` [compound 267, 4-(4-((3-carbamoyl-1-(2,6-dichlorophenyl)-1H-pyrazol-4-yl)amino)phenyl)-3-methylpridine_1-oxide], the IC50 in test [1] was in the range of 10 to 100 nM; in test [2], 100 to 1000 nM; in test [3] it was 100 to 1000 nM; in test [4], 10 to 100 nM.

`Cc1ccnnc1-c1ccc(Nc2cn(-c3c(Cl)cccc3Cl)nc2C(N)=O)cc1` [compound 45, 1-(2,6-dichlorophenyl)-4-((4-(4-methylpyridazin-3-yl)phenyl)amino)-1H-pyrazole-3-carboxamide]: the IC50 in test [1] is less than 10 nM; in test [2], 10 to 100 nM; in test [3], 10 to 100 nM; in test [4], 100 to 1000 nM.

With `N#Cc1cccnc1-c1ccc(Nc2cn(-c3c(Cl)cccc3Cl)nc2C(N)=O)cc1` [compound 59, 4-((4-(3-cyanopyridin-2-yl)phenyl)amino)-1-(2,6-dichlorophenyl)-1H-pyrazole-3-carboxamide], the half-inhibitory concentration (IC50) in test [1] lay within 100 to 1000 nM; in test [2] it was 100 to 1000 nM; in test [3], 100 to 1000 nM; in test [4] it was 10 to 100 nM.

In the case of `CCc1nc(C(F)(F)F)nn1-c1ccc(Nc2cn(-c3c(F)cccc3Cl)nc2C(N)=O)cc1` [compound 283, 1-(2-chloro-6-fluorophenyl)-4-((4-(5-ethyl-3-(trifluoromethyl)-1H-1,2,4-triazol-1-yl)phenyl)amino)-1H-pyrazole-3-carboxamide], the concentration for half-maximal inhibition (IC50) is less than 10 nM in test [1], 100 to 1000 nM in test [2], 100 to 1000 nM in test [3] and 100 to 1000 nM in test [4].

Turning to `Cc1ncn(C)c1-c1ccc(Nc2cn(-c3c(Cl)cccc3Cl)nc2C(N)=O)cc1` [compound 53, 1-(2,6-dichlorophenyl)-4-((4-(1,4-dimethyl-1H-imidazol-5-yl)phenyl)amino)-1H-pyrazole-3-carboxamide], the 50% inhibitory concentration (IC50) in test [1] was 100 to 1000 nM; in test [2], 100 to 1000 nM; in test [3], 100 to 1000 nM; in test [4], 10 to 100 nM.

For `Cc1cccc2nnc(-c3ccc(Nc4cn(-c5c(Cl)cccc5Cl)nc4C(N)=O)cn3)n12` [compound 388, 1-(2,6-dichlorophenyl)-4-((6-(5-methyl-[1,2,4]triazolo[4,3-a]pyridin-3-yl)pyridin-3-yl)amino)-1H-pyrazole-3-carboxamide], the IC50 fell in the range of 10 to 100 nM in test [1], 100 to 1000 nM in test [2], 100 to 1000 nM in test [3] and 10 to 100 nM in test [4].

Take `NC(=O)c1nn(-c2c(Cl)cccc2Cl)cc1Nc1ccc(C(=O)N2CCC(F)C2)cc1` (stereo not drawn) [compound 246, 1-(2,6-dichlorophenyl)-4-((4-(3-fluoropyrrolidine-1-carbonyl)phenyl)amino)-1H-pyrazole-3-carboxamide]: the IC50 in test [1] lay within 10 to 100 nM; in test [2], 100 to 1000 nM; in test [3], 100 to 1000 nM; in test [4], 10 to 100 nM.
